Measured values published in US6441032B1, “Alpha-(4-Ethoxyphenyl)-N-tert-butylnitrone, pharmaceutical compositions and their medical use” (Centaur Pharmaceuticals, Inc., priority 1997, dated 2002).

Assays:
[1] = tested on: MRL/MpJ Fas^lpr mice; assay: Reduction of cognitive deficits in autoimmune mice (T-maze task); type: in vivo, mouse; conditions: 100 mg/kg oral gavage daily for 8 to 9 weeks, versus untreated mutant mice
Protocol: MRL/MpJfas^lPr (“mutant mice” or “Fas^lPr”) strains of mice have been described as useful models of Lupus due to their autoimmune lymphoproliferative pathology. In particular, the mutant mice show a cognitive deficit at approximately four months of age, which is not observed at two months of age. See, for example, Forster et al., 1988. Behav. Neural Biology, 49, 139-151.
In the experiment, male MRL/MpJ Fas^lpr and normal MRL/MpJ++mice of 8 weeks of age were weighed and administered 100 mg/kg of the test compound (either α-(2-ethoxyphenyl)-N-tert-butylnitrone or α-(4-ethoxyphenyl)-N-cyclohexylnitrone) or 1% methylcellulose vehicle by oral gavage daily for 8 to 9 weeks. At 4 months of age, the mice were tested for avoidance, discrimination, session criteria and acquisition in a one day T-maze task with a maximum of 25 trials. Criteria was met with four of five trials correct with the last two correct trials being consecutive in avoidance and discrimination.

[2] = tested on: Lewis rats with MBP-induced EAE; assay: Prevention of MBP-induced experimental allergic encephalomyelitis; type: in vivo, Lewis rat; conditions: 100 mg/kg b.i.d. oral gavage, day 3 to day 16 post-inoculation
Protocol: Female, Lewis rats of 8 weeks of age (180-250 g) were weighed and then given two intradermal injections (0.1 mL each) of 0.4 mg of M. tuberculin in 0.1 mL incomplete Freunds adjuvant and […] of myelin basic protein in 0.1 mL of saline into the base of the tail. Animals were weighed daily and given a clinical score beginning on Day 8, post inoculation, according to the following criteria:
2.5=Hind limb paralysis and front limb weakness
3.0=Hind and front limb paralysis
4.0=Moribund state or death
On day 3, post-inoculation animals were administered b.i.d either a test compound (100 mg/kg) or 1% methylcellulose vehicle by oral gavage up to and including day 16.

[3] = tested on: Male Sprague-Dawley rats injected with Aβ(25-35) and ibotenate; assay: Reduction of cognitive defects due to Aβ-peptide/ibotenate (Morris water maze); type: in vivo, Sprague-Dawley rat; conditions: 10 mgl/k by oral gavage daily
Text: The procedures employed in this example are similar to those described in Dornan et al. NeuroReport 5, 165-168 (1993). Male Sprague-Dawley rats (200-300 g) were weighed and given 10 mgl/k of α-(2-ethoxyphenyl)-N-tert-butylnitrone or 1% methylcellulose by oral gavage. One hour later, the rats were stereotaxically injected into the CA1 region of their hippocampus with 8 nmol of Aβ(25-35) and 6 nmol of ibotenate per side (coordinates from bregma −3.6=AP, ±2.2=ML, −3.0=DV from the top of the dura). Controls were injected with PBS (pH 7.4). All injections were 1.5 μL in volume. The animals receiving PBS were orally dosed with 1% methylcellulose. Oral dosing continued daily until the end of the Morris water maze testing.
Nine to eleven days following injection, animals were tested in a Morris water maze task to measure spatial memory and learning. Animals were given three days of testing with four to six trials per day. The last trial on the fourth day was a probe trial where the platform was removed and time in quadrant and annulae crossings were determined. Following the behavioral testing, animals were perfused with 10% neutral formalin. The brain was post-fixed for 1 week in 10% formalin and then sliced for histological evaluation. Image analysis of cresyl violet staining was used to compare the neuronal loss (lesion volume) in the hippocampus between groups.

| Compound | CNS inflammatory deficit in acute EAE animals [2] | further results |
| --- | --- | --- |
| CCOc1ccc(C=[N+]([O-])C2CCCCC2)cc1 [Example 11, α-(4-Ethoxyphenyl)-N-cyclohexylnitrone] | reduced the CNS inflammatory deficit | acquisition in T-maze task [1]: reduced acquisition values; avoidance in T-maze task [1]: acquired avoidance skills earlier |
| CCCCCCOc1ccc(C=[N+]([O-])C2CCCCC2)cc1OCC [Example 22, α-(3-Ethoxy-4hexyloxyphenyl)-N-cyclohexylnitrone] | reduced the CNS inflammatory deficit | – |
| CCCCCCCCOc1ccc(C=[N+]([O-])C(C)(C)C)c(F)c1 [Example 29, α-(2-Fluoro-4-octyloxyphenyl)-N-tert-butylnitrone] | did not significantly reduce the CNS inflammatory deficit | – |
| [O-][N+](=Cc1ccc(OCc2ccccc2)cc1)C1CCCC1 [Example 42, α-(4-Benzyloxyphenyl)-N-cyclopentylnitrone] | reduced the CNS inflammatory deficit | – |
| COc1cc(C=[N+]([O-])C(C)(C)C)ccc1OCc1ccccc1 [Example 5, α-(4-Benzyloxy-3-methoxyphenyl)-N-tert-butylnitrone] | did not significantly reduce the CNS inflammatory deficit | – |
| CCOc1cc(C=[N+]([O-])C(C)C)ccc1OC [Example 17, α-(3-Ethoxy-4-methoxyphenyl)-N-isopropylnitrone] | reduced the CNS inflammatory deficit | – |
| CCCC[N+]([O-])=Cc1ccc(OCC)cc1 [Example 10, α-(4-ethoxyphenyl)-N-n-butylnitrone] | did not significantly reduce the CNS inflammatory deficit | – |
| CCOc1cc(C=[N+]([O-])C(C)(C)CC(C)(C)C)ccc1OC [Example 45, α-(3-Ethoxy-4-methoxyphenyl)-N-tert-octylnitrone] | reduced the CNS inflammatory deficit | – |
| CCOc1ccc(C=[N+]([O-])C2CCCCC2)cc1OC [Example 15, α-(4-Ethoxy-3-methoxyphenyl)-N-cyclohexylnitrone] | did not significantly reduce the CNS inflammatory deficit | – |
| CCOc1ccc(C=[N+]([O-])C(C)(C)C)cc1 [Example 4, α-(4-Ethoxyphenyl)-N-tert-butylnitrone] | did not significantly reduce the CNS inflammatory deficit | – |
| CC(C)(C)[N+]([O-])=Cc1ccc(OCc2ccccc2)cc1 [Example 41, α-(4-Benzyloxyphenyl)-N-tert-butylnitrone] | reduced the CNS inflammatory deficit | – |
| CCOc1cc(C=[N+]([O-])C(C)(C)C)ccc1OC [Example 3, α-(3-Ethoxy-4-methoxyphenyl)-N-tert-butylnitrone] | reduced the CNS inflammatory deficit | – |
| CCOc1ccccc1C=[N+]([O-])C(C)(C)C [Example 7, α-(2-Ethoxyphenyl)-N-tert-butylnitrone] | did not significantly reduce the CNS inflammatory deficit | acquisition in T-maze task [1]: reduced acquisition values; avoidance in T-maze task [1]: acquired avoidance skills earlier; Aβ peptide/ibotenate-induced learning deficit [3]: reduced the Aβ peptide/ibotenate-induced learning deficit |
